The source of these data is US8193234B2, “Compounds, compositions and methods of using same for modulating uric acid levels” (Ardea Biosciences, Inc., priority 2008, dated 2012).

What is called EC50 is the concentration giving half of the maximal effect. Broadly, the Cmax is the highest concentration seen after dosing. The Tmax is the time from dosing to the highest level.

One data set addresses T1, hURAT1 Transporter (Homo sapiens, UniProt Q96S37).
T1 construct: Full-length human URAT1 gene (SLC22A12) was subcloned from plasmid pCMV6-XL5 (Origene)
T1 sequence (Q96S37 1-553): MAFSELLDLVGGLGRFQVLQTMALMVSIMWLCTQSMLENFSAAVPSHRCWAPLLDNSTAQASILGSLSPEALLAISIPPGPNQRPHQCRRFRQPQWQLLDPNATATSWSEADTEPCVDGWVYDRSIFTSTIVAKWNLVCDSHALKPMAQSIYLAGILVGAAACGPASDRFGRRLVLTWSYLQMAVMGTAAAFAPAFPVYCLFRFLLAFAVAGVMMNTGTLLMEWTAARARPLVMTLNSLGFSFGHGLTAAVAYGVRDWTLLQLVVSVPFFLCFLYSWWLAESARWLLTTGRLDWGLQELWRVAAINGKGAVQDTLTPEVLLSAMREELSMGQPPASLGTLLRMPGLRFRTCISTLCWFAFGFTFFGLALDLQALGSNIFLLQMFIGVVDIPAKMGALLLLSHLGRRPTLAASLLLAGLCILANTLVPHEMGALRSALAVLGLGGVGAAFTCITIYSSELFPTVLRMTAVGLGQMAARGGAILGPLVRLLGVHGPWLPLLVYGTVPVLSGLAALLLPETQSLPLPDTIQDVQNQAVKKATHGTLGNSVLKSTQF
Put plainly: Uric Acid Uptake Assay (14C-uric acid uptake in HEK293/urat1 cells). Particulars: 40 μM C14 uric acid, 10 minutes at room temperature. The data set is classed as cell-based. From the text: Creation of Stable Cell Lines Expressing hURAT1 Transporter: Full-length human URAT1 gene (SLC22A12) was subcloned from plasmid pCMV6-XL5 (Origene) into eukaryotic expression plasmid pCMV6/Neo (Origene) using Not I restriction sites. Gene sequencing confirmed the sequence of hURAT1 as outlined in Genbank (Accession #NM_144585.2). HEK293 human embryonic kidney cells (ATCC #CRL-1573) were propagated in EMEM tissue culture medium as described by ATCC in an atmosphere of 5% CO2 and 95% air. Transfections of HEK293 cells with the pCMV6/Neo/URAT1 construct were performed using L2000 transfection reagent (Invitrogen) as described by the manufacturer. After 24 h the transfected cells were split into 10 cm tissue culture plates and grown for 1 day after which the medium was replaced with fresh growth medium containing G418 (Gibco) at 0.5 mg/ml final concentration. Drug-resistant colonies were selected after approximately 8 days and then tested for ^14C-uric acid transport activity. The HEK293/urat1 cells are plated on Poly-D-Lysine Coated 96-well Plates at a density of 75,000 cells per well.
Cells were grown overnight (20-26 hours) at 37° C. in an incubator. Plates were allowed to come to room temperature and media was washed out with one wash of 250 μl of Wash Buffer (125 mM Na Gluconate, 10 mM Hepes ph 7.3). Compound or vehicle is added in assay buffer with C14 Uric Acid for a final concentration of 40 μM Uric Acid with a specific activity of 54 mCi/mmol. Assay Buffer is 125 mM Sodium Gluconate, 4.8 mM Potassium Gluconate, 1.2 mM Potassium phosphate, monobasic, 1.2 mM magnesium sulfate, 1.3 mM Ca Gluconate, 5.6 mM Glucose, 25 mM HEPES, pH 7.3. Plates were incubated at room temperature for 10 minutes then washed 3 times with 50 μl Wash Buffer and 3 times with 250 μl Wash Buffer. Microscint 20 Scintillation Fluid was added and plates were incubated overnight at 45° C. to equilibrate. Plates are then read on the TopCount Plate Reader and an EC50 value generated. (See Enomoto et al, Nature, 2002, 417, 447-451 and Anzai et al, J. Biol. Chem., 2004, 279, 45942-45950).
Compounds prepared as described herein, were examined according to the procedure described above and EC50 values generated. […] (N/A means data not available).

For data set [1] the following is noted: background statement, in certain instances; cited from earlier work.
Data set [2] in a line: PO Dosing in Rats: urinary excretion profile. The data set is classed as in vivo, Male Sprague-Dawley Rats. The settings on record: analyte = dosed compound itself in urine, PO 3 mg/kg, male rats. Here is the method: (§1) Compounds prepared as described in examples 1, 3, 7, 8, and 9 are administered PO to Male Sprague-Dawley Rats (250 grams; 3 animals per test group). The test compounds are dissolved in aqueous sodium hydroxide solution (0.2N), brought up to volume with phosphate buffered saline to a concentration of 0.6 mg/mL, and PO administered to the animals at a concentration of 3 mg/kg (5 mL/kg). Plasma samples are removed at 0.25, 0.5, 1, 3, 6, 12 and 24 hr after initial dose and analyzed for presence of compound and possible metabolite. Urine samples are also collected and analyzed for parent compound and/or metabolite.
(§2) Note that in some instances, 2-(5-Bromo-1-(4-cyanonaphthalen-1-yl)-1H-imidazol-2-ylthio)acetic acid (eg 1) is a possible in vivo metabolite of the compounds described in examples 2-9.

A short description of data set [3]: PO Dosing in Rats: plasma profile. It is filed as in vivo, Male Sprague-Dawley Rats. The settings on record: for Cmax / Tmax / half-life / AUC(0-t): Sprague-Dawley, rat; for Cmax / Tmax / half-life / Clast: analyte = dosed compound itself in plasma; for half-life: read-out: t½ (converted); for AUC t = 0_6, share in brackets / AUC t = 12_24, share in brackets / AUC t = _12, share in brackets: share of AUC 0_24; for AUC(0-t): male, plasma, po, 3 mg/kg. On the procedure:
as §1, §2

Setting [4] is: footnote *: plasma, not urinary, distribution, analyte = dosed compound, PO 3 mg/kg, male rats.
The mark [5] stands for this setting: analyte = dosed compound itself.
The mark [6] stands for this setting: analyte = dosed compound itself, PO 3 mg/kg, male rats, read-out: AUC t = 0_6.
Setting [7] is: analyte = dosed compound itself, PO 3 mg/kg, male rats, read-out: AUC t = 0_24.
The mark [8] stands for this setting: analyte = dosed compound itself, PO 3 mg/kg, male rats, read-out: AUC t = 12_24.
The mark [9] stands for this setting: analyte = dosed compound itself, PO 3 mg/kg, male rats, read-out: AUC t = _12.

Read-outs that look alike come from different tables or passages of the source. A value given as a limit tells only on which side of the number the result lay.

`Cc1cnc(SCC(=O)O)n1-c1ccc(N(C)C)c2c1CCCC2` displayed an EC50 on hURAT1 Transporter of 1000 to 30000 nM.
On to `Oc1ncnc2[nH]ncc12` [Allopurinol, allopurinol], for which the “incidence of side effects, of all individuals treated with the drug” value in data set [1] was 20%.
Turning to `N#Cc1ccc(-n2c(Br)cnc2SCC(=O)O)c2ccccc12` [Example 1, 2-(5-Bromo-1-(4-cyanonaphthalen-1-yl)-1H-imidazol-2-ylthio)acetic acid], in data set [2], the “Total Urinary Excretion % of dose” value is reported as 4.2 % of dose. This compound showed a BA in data set [3] (analyte = dosed compound itself, PO 3 mg/kg, male rats) of 30%. Further, in data set [3] (setting [4]), the “Plasma Distribution (%) 0-6 h” value was 85* %, the “Plasma Distribution (%) 6-12 h” value is on record as 11* % and the “Plasma Distribution (%) 12-24 h” value is listed as 4* %. Moreover, the concentration for a half-maximal effect (EC50) on hURAT1 Transporter was in the range of 1 to 1000 nM.
On to `CCOC(=O)CNC(=O)CSc1ncc(Br)n1-c1ccc(C#N)c2ccccc12` [Example 2, Ethyl 2-(2-(5-bromo-1-(4-cyanonaphthalen-1-yl)-1H-imidazol-2-ylthio)acetamido)acetate], for which, at hURAT1 Transporter, the 50% effective concentration (EC50) lay in the range of 1 to 1000 nM.
Take `N#Cc1ccc(-n2c(Br)cnc2SCC(=O)NCC(=O)O)c2ccccc12` [Example 3, 2-(2-(5-Bromo-1-(4-cyanonaphthalen-1-yl)-1H-imidazol-2-ylthio)acetamido)acetic acid]: in data set [2], the “Total Urinary Excretion % of dose” value is 7 % of dose, the “Urinary Distribution (%) 0-6 h” value was determined as 74%, the “Urinary Distribution (%) 6-12 h” value was found to be 20% and the “Urinary Distribution (%) 12-24 h” value was determined as 7%. In data set [3] (PO 3 mg/kg, male rats), the maximum concentration (Cmax) stood at 56.6 ng/mL, the Tmax was found to be 0.833 h, the half-life was 3.49 h and the Clast amounted to 0.518 ng/mL. Besides, in data set [3] (setting [5]), the “AUC t = 0_6, share in brackets” value is reported as “(58%)”; the “AUC t = 12_24, share in brackets” value is on record as “(10%)”; the “AUC t = _12, share in brackets” value is “(32%)”. Further, the AUC(0-t) in data set [3] (setting [6]) amounted to 145 ng·h/mL. In addition, in data set [3] (setting [7]), the AUC(0-t) amounted to 251 ng·h/mL. In data set [3] (setting [8]), the AUC(0-t) was found to be 25.6 ng·h/mL. The AUC(0-t) in data set [3] (setting [9]) turned out to be 79.8 ng·h/mL. Besides, the concentration for a half-maximal effect (EC50) at hURAT1 Transporter was 1000 to 30000 nM.
Consider `CCOC(=O)CCNC(=O)CSc1ncc(Br)n1-c1ccc(C#N)c2ccccc12` [Example 4, Ethyl 3-(2-(5-bromo-1-(4-cyanonaphthalen-1-yl)-1H-imidazol-2-ylthio)acetamido)propanoate], for which the half-maximal effective concentration (EC50) on hURAT1 Transporter was 1 to 1000 nM.
With `CCOC(=O)[C@H](C)NC(=O)CSc1ncc(Br)n1-c1ccc(C#N)c2ccccc12` [Example 5, (2S)-Ethyl 2-(2-(5-bromo-1-(4-cyanonaphthalen-1-yl)-1H-imidazol-2-ylthio)acetamido)propanoate], the EC50 at hURAT1 Transporter fell in the range of 1 to 1000 nM.
`CCOC(=O)[C@@H](NC(=O)CSc1ncc(Br)n1-c1ccc(C#N)c2ccccc12)C(C)C` [Example 6, (2S)-Ethyl 2-(2-(5-bromo-1-(4-cyanonaphthalen-1-yl)-1H-imidazol-2-ylthio)acetamido)-3-methylbutanoate] yielded an EC50 at hURAT1 Transporter of 1 to 1000 nM.
`N#Cc1ccc(-n2c(Br)cnc2SCC(=O)NCCC(=O)O)c2ccccc12` [Example 7, 3-(2-(5-bromo-1-(4-cyanonaphthalen-1-yl)-1H-imidazol-2-ylthio)acetamido)propanoic acid]: in data set [2], the “Total Urinary Excretion % of dose” value is recorded as 26 % of dose, the “Urinary Distribution (%) 0-6 h” value amounted to 63%, the “Urinary Distribution (%) 6-12 h” value was 30% and the “Urinary Distribution (%) 12-24 h” value worked out at 7%. The same compound gave an EC50 at hURAT1 Transporter of 1000 to 30000 nM.
Take `C[C@H](NC(=O)CSc1ncc(Br)n1-c1ccc(C#N)c2ccccc12)C(=O)O` [Example 8, (2S)-2-(2-(5-bromo-1-(4-cyanonaphthalen-1-yl)-1H-imidazol-2-ylthio)acetamido)propanoic acid]: in data set [2], the “Total Urinary Excretion % of dose” value is recorded as 8 % of dose, the “Urinary Distribution (%) 0-6 h” value worked out at 63%, the “Urinary Distribution (%) 6-12 h” value is 32% and the “Urinary Distribution (%) 12-24 h” value is 5%. For the same compound, in data set [3] (PO 3 mg/kg, male rats), the peak level (Cmax) was 110 ng/mL, the time to peak (Tmax) was determined as 1 h, the half-life was 2.99 h and the Clast worked out at 0.371 ng/mL. In data set [3] (setting [5]), the “AUC t = 0_6, share in brackets” value is on record as “(69%)”; the “AUC t = 12_24, share in brackets” value is on record as “(13%)”; the “AUC t = _12, share in brackets” value is given as “(17%)”. The AUC(0-t) in data set [3] (setting [6]) was determined as 339 ng·h/mL. Also, the AUC(0-t) in data set [3] (setting [7]) was determined as 488 ng·h/mL. Also, the AUC(0-t) in data set [3] (setting [8]) was 65.2 ng·h/mL. Moreover, the AUC(0-t) in data set [3] (setting [9]) stood at 83.9 ng·h/mL. At hURAT1 Transporter, this compound showed a concentration giving a half-maximal response (EC50) of more than 30000 nM.
`CC(C)[C@H](NC(=O)CSc1ncc(Br)n1-c1ccc(C#N)c2ccccc12)C(=O)O` [Example 9, (2S)-2-(2-(5-bromo-1-(4-cyanonaphthalen-1-yl)-1H-imidazol-2-ylthio)acetamido)-3-methylbutanoic acid]: in data set [2], the “Total Urinary Excretion % of dose” value is 1 % of dose, the “Urinary Distribution (%) 0-6 h” value turned out to be 66%, the “Urinary Distribution (%) 6-12 h” value turned out to be 26% and the “Urinary Distribution (%) 12-24 h” value worked out at 9%. Also, in data set [3] (PO 3 mg/kg, male rats), the Cmax came out at 25.8 ng/mL, the Tmax was found to be 2.67 h, the half-life is 2.69 h and the Clast came out at 4.69 ng/mL. Besides, in data set [3] (setting [5]), the “AUC t = 0_6, share in brackets” value is “(49%)”; the “AUC t = 12_24, share in brackets” value is recorded as “(15%)”; the “AUC t = _12, share in brackets” value was “(36%)”. In addition, the AUC(0-t) in data set [3] (setting [6]) turned out to be 91.5 ng·h/mL. In addition, in data set [3] (setting [7]), the AUC(0-t) turned out to be 187 ng·h/mL. The AUC(0-t) in data set [3] (setting [8]) amounted to 28.2 ng·h/mL. The AUC(0-t) in data set [3] (setting [9]) was found to be 67.7 ng·h/mL. This compound also came in with an EC50 at hURAT1 Transporter of 1000 to 30000 nM.
The compound `N#Cc1ccc(-n2c(Br)cnc2SC(F)(F)C(=O)O)c2ccccc12` [Example 10, 2-(5-Bromo-1-(4-cyanonaphthalen-1-yl)-1H-imidazol-2-ylthio)-2,2-difluoroacetic acid] came in with a 50% effective concentration (EC50) on hURAT1 Transporter of 1 to 1000 nM.
Regarding `CCCN(CCC)S(=O)(=O)c1ccc(C(=O)O)cc1` [probenecid], in data set [1], the “individuals treated who fail to achieve reduction of serum uric acid levels<6 mg/dL” value is reported as 25-50% and the “individuals who develop intolerance” value is recorded as “one-third”.
